Assay results taken from patent publication US20100267928A1, “ACTIVATABLE DIAGNOSTIC AND THERAPEUTIC COMPOUND” (priority 2007, published 2010).
Primed or numbered codes have the meaning given here. Where no end group is shown, it is not given here. The star is where a group is joined. DOTA = O=C(O)CN1CCN(CC(=O)O)CCN(CC(=O)*)CCN(CC(=O)O)CC1; FITC′ = fluorescent dye, fluorescein isothiocyanate

How the values were obtained:
MMP-2 = target: T1, MMP-2 (Homo sapiens, UniProt P08253); assay: Cleavage test with MMP-2, cleavage products examined by HPLC; type: biochemical
T1 construct: purchased Calbiochem
T1 sequence (P08253 110-660): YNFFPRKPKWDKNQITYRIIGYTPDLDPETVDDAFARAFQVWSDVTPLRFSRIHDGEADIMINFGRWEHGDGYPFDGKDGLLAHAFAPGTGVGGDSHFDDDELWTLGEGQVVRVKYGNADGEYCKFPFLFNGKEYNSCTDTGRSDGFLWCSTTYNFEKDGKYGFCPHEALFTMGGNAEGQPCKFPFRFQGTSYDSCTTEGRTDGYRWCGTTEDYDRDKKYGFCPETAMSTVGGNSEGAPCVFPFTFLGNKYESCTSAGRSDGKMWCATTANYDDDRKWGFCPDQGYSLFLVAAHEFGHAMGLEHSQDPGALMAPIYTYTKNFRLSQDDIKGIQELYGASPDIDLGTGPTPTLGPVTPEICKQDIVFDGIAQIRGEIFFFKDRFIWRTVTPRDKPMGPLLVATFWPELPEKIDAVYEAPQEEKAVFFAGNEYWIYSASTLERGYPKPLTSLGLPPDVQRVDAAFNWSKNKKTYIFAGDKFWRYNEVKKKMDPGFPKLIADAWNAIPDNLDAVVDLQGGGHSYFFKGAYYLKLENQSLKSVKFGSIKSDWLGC
Procedure: The incubation in HEPES buffer with active MMP-2 was made for 2 hours.
[…]. For this 1% APMA stock solution (100 mM in DMSO) was added to the solution containing the MMP-2 proenzyme and the compounds (final APMA concentration: 1 mM, with 1% DMSO).
In the following also an incubation of 2 hours was performed. In addition the tests were made with the MMP-2 inhibitor I (Calbiochem). All six compounds were, as a control, also incubated into HEPES buffer without MMP-2 for two hours.

[1] = tested on: LN18 and U373 glioma cells; assay: Confocal laser scanning microscopy (CLSM) and FACS, staining of cell nuclei; type: cell-based, human; details: 130 μM, APMA-containing medium, MMP-2 inactive/inhibited
Procedure: (§1) The FACS analysis was performed on a Becton-Dickinson FACSCalibur. [[…] of the cell suspension (1×10^6 cells+[…] FACS buffer (DPBS buffer with 1% paraformaldehyde)]. Approximately 25.000 to 35.000 cells were measured per sample [fluorescence excitation: argon-ion laser (480 nm), fluorescence detection: 540 to 565 nm band-path filter]. The tests were repeated two times.

[2] = tested on: LN18 and U373 glioma cells; details: 130 μM; APMA-containing medium without inhibitor
Procedure: Human malignant glioma cells (U373 and LN18) were seated into 25 cm^2 culture flasks which contained 3 ml RPMI medium. This was left as it is for one day so that enough matrix metalloprotenases (MMP-2) could accumulate.
In a second test the same compounds were again dissolved in the media of 12 flasks (130 μM), however now with MMP-2 inhibitor I (Calbiochem).
As a control four small flasks were used wherein both cell lines were incubated in a one day old medium with and also without APMA.
For the confocal laser scanning microscopy an inverted LSM510 laser scanning microscope (Karl Zeiss, Jena, Deutschland) (Objectives: LD Achroplan 40×0.6, Plan Neofluar 20×0.50, 40×0.75) was used [fluorescence excitation at 488 nm (argon-ion laser) and […] (helium-neon laser)]. Superimposed images of FITC- and alexa-stained cells were produced. All measurements were performed on living, non-fixed cells for three times.

LN18 glioma cells = assay: FACS analysis of fluorescence-stained cells; type: cell-based, human; details: depending on the concentration; FIG. 5
Procedure: as §1

[3] = tested on: U373 and LN18 glioma cells; assay: Magnetic resonance relaxometry on glioma cell centrifugates; type: cell-based, human
Procedure: Human U373 and LN18 glioma cells were grown in 25 cm^2 culture flasks (70% confluence). Accutase™ (PAA laboratories, Pasching, Austria) was added to strip off the cells from the bottom of the culture flasks.
In a first try the cells were collected and subsequently distributed on 16 Eppendorf-vials (6×10^6 cells per vial). The cells in the first four vials were used as a control (only RPMI medium with and also without APMA, two cell lines). […] In the following it was washed for three times with PBS and centrifuged with 800 rpm (rounds per minute) for 5 minutes.
In another test adherent U373 and LN18 glioma cells were incubated with the compounds 2A, 4A and […], and were stripped off in the following and collected in Eppendorf vials for the MRT. The MRT analysis of the Eppendorf vials with the cell centrifugates were performed in a 3 Tesla full body MRT apparatus (Trio, Siemens Magnetom Sonata, circular polarised knee coil).
The following spin echo sequence was used to obtain sagittal T1-weighted MRT images.
[…] TE (echo time): 7.4 ms, flip angle 90°, averages: 1, concatenations: 2, measurements: 2, number of slices: 19, distance factor: 30%, slice thickness: 3 mm, field of view read: 180 mm, field of view phase: 100%, base resolution: 256, phase resolution: 100%, voxel size: 0.7×0.7×3.0 mm, scan time: 1:48 min.
By means of multiple spin echo measurements (TR: 20-8000 ms, 50 different TR values) different signal intensities were measured through which the T1 relaxation time could be determined.
TR: 20-8000 ms (50 different TR values), TE: 6.4 ms, flip angle 90°, averages: 1, measurements; 1, number of slices: 1, slice thickness: 1 mm, field of view read: 120 mm, field of view phase: 87.5, base resolution 128, phase resolution; 100% voxel size: 0.9×0.9×1 mm.
For the analysis and calculations a Matlab programme (Math Works, Natick, Mass., USA) was used. The T1 values were determined via a two-parameter fit. All signal curves were examined and rated as being mono-exponential. All tests were performed three times.

[4] = tested on: intra-cerebral LN18 brain tumors; assay: In vivo magnetic resonance tomography of nude mice with implanted glioma
Procedure: Female nude mice CD1(Nu/Nu) were obtained from Charles River (Sulzfeld, Germany) (weight: 25 g; age: 7 weeks). Human LN18 glioma cells were grown and implanted into the brain as described by Friese et al. (2003), MICA/NKG2D-mediated Immunogene Therapy of Experimental Gliomas, Cancer Res. 63(24): 8996-9006. The tests were performed 3 weeks after the implantation.
3.6 mg of the compound 4A were dissolved in 1 ml isotonic saline solution and intraperitoneally injected into 2 mice. Further, 3.6 mg of compound 4A were dissolved in 1 ml isotonic saline solution together with 0.5 mg MMP-2 inhibitor I, and in intraperitoneally injected into 2 mice. A mouse was used as control which were injected with 1 ml pure saline solution. Narcosis was performed with ketamine (100 mg/kg) and xylazine (10 mg/kg) intraperitoneally.
MRT was performed with a 3 Tesla full body apparatus (Trio. Siemens).
The mice were placed face down in a wrist array coil.
The MRT protocol consisted of the following sequences:
Tse 3D sequence: slice thickness 0.3125 mm, field of view read 63 mm, field of view phase 100.0%, base resolution 256, phase resolution 100%, slice resolution 100%, voxel seize 0.2×0.2×0.3 mm, slab group 1, slabs 1, slices per slab 16, TR 300 ms, TE 15 ms, flip angle 70, distance factor 50, scan time 12:02 min.
T1 weighted transverse images: slice thickness 2 mm, field of view read 31 mm, field of view phase 82.3%, voxel seize 0.2×0.2×2 mm, TR 600 ms, TE 18 ms, flip angle 180, number of slices 12, distance factor 0, scan time 11:35 min.

K-(GdDOTA)-G-PLGLA-GG-PKKKRKVRRRR-K(FITC)-GG-K(GdDOTA) (K(DOTA)GPLGLAGGPKKKRKVRRRRK(FITC′)GGK(DOTA)-NH2; also: DOTA groups complexed with Gd (GdDOTA)) [V4A]
cleavage of the compound by MMP-2 (HPLC) (MMP-2; already active MMP-2 or proform of MMP-2 activated by APMA, 2 hours in HEPES buffer): cleaved
cleavage of the compound by MMP-2 in presence of the inhibitor (HPLC) (MMP-2; with MMP-2 inhibitor I): prevented
staining of the cell nuclei, MMP-2 inactive [1]: few stained cell nuclei
apoptosis (binding of Alexa annexin to phosphatidyl serine; morphologic alterations), MMP-2 active [2]: apoptotic
fluorescence after cleavage by MMP-2 in comparison to the components 2 and 2A (LN18 glioma cells): stronger fluorescence
shortening of the T1 time in comparison to the native control, inhibitor-containing medium ([3]; 26 and 130 μM, with MMP-2 inhibitor): minor shortening of the T1 time
signal intensity at TR: 400 ms, active MMP-2 versus inactive MMP-2 ([3]; LN18 glioma cell centrifugates, 26 and 130 μm, washed and centrifuged three times): considerably higher signal intensity
shortening of the T1 time in comparison to component 2A, inhibitor-free medium ([3]; depending on the concentration): stronger shortening of the T1 time
shortening of the T1 time, inhibitor-free medium ([3]; without MMP-2 inhibitor): more distinct shortening of the T1 time
intensity of the signal in the tumor in comparison to the native image ([4]; 30 minutes after intraperitoneal administration, FIG. 8): considerably decreases
signal intensity in the brain tumors in MR tomography ([4]; intraperitoneal administration, nude mice with intra-cerebral LN18 brain tumors): distinct increase of the signal intensity
signal intensity in the brain tumors, administered in the presence of an MMP-2 inhibitor ([4]; intraperitoneal, with MMP-2 inhibitor, remained only for a short time): very minor increase of the signal intensity
signal intensity in the brain tumors one day after the administration ([4]; intraperitoneal, one day after administration): attenuated form
